{"source": "ChEMBL document CHEMBL4811304", "about": "“Design, synthesis and biological evaluation of dual mTOR/HDAC6 inhibitors in MDA-MB-231 cells” (Bioorg Med Chem Lett, 2021)", "key": {"MDA-MB-231 [1]": {"system": "MDA-MB-231", "assay": "Inhibition of cell migration in human MDA-MB-231 cells after 48 hrs by transwell assay", "assay_type": "functional, cell-based", "conditions": "dose 5-20 µM"}, "MDA-MB-231 [2]": {"system": "MDA-MB-231", "assay": "Induction of apoptosis in human MDA-MB-231 cells assessed as necrotic cells at 5 uM by annexin V/propidium iodide staining-based flow cytometry analysis (reference value: 0.099 %)", "assay_type": "functional"}, "MDA-MB-231 [3]": {"system": "MDA-MB-231", "assay": "Induction of apoptosis in human MDA-MB-231 cells assessed as increase in PARP cleavage at 5 to 20 uM by Western blot analysis", "assay_type": "functional, cell-based", "conditions": "dose 5-20 µM"}, "MDA-MB-231 [4]": {"system": "MDA-MB-231", "assay": "Antiproliferative activity against human MDA-MB-231 cells measured after 48 hrs", "assay_type": "functional, cell-based", "conditions": "MDA-MB-231, 48 h"}, "MDA-MB-231 [5]": {"system": "MDA-MB-231", "assay": "Induction of apoptosis in human MDA-MB-231 cells assessed as late apoptotic cells at 10 uM by annexin V/propidium iodide staining-based flow cytometry analysis (reference value: 2.34 %)", "assay_type": "functional"}, "MDA-MB-231 [6]": {"system": "MDA-MB-231", "assay": "Inhibition of cell migration in human MDA-MB-231 cells assessed as increase in E-cadherin expression at 5 to 20 uM after 48 hrs by Western blot analysis", "assay_type": "functional, cell-based", "conditions": "dose 5-20 µM"}, "MDA-MB-231 [7]": {"system": "MDA-MB-231", "assay": "Induction of autophagy in human MDA-MB-231 cells transfected with GFP-LC3 assessed as accumulation of LC3 puncta at 5 to 20 uM after 48 hrs by Western blot analysis", "assay_type": "functional, cell-based", "conditions": "dose 5-20 µM"}, "Histone deacetylase 2 [8]": {"molecular_target": "T1, Histone deacetylase 2 (Homo sapiens, UniProt Q92769)", "T1 sequence (Q92769 whole entry)": "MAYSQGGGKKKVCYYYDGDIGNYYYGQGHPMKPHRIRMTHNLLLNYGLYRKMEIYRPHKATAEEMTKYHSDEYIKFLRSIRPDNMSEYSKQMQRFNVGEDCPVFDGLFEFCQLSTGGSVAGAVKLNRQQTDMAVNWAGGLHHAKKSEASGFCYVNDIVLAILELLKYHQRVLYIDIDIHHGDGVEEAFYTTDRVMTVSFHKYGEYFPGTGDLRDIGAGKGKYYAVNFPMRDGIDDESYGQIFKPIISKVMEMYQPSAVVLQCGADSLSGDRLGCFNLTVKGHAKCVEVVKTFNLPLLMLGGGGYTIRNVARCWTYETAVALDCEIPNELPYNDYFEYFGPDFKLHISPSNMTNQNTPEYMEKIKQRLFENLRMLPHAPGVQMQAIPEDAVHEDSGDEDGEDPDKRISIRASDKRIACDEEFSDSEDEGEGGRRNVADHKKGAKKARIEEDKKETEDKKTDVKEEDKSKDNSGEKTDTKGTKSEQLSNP", "assay": "Binding affinity to HDAC2 in human MDA-MB-231 cells assessed as increase in thermal stability at 10 uM measured at 6 hrs by CETSA", "assay_type": "cell-based"}, "[9]": {"molecular_target": "T2, Protein deacetylase HDAC6 (Homo sapiens) (UniProt Q9UBN7)", "T2 sequence (whole entry)": "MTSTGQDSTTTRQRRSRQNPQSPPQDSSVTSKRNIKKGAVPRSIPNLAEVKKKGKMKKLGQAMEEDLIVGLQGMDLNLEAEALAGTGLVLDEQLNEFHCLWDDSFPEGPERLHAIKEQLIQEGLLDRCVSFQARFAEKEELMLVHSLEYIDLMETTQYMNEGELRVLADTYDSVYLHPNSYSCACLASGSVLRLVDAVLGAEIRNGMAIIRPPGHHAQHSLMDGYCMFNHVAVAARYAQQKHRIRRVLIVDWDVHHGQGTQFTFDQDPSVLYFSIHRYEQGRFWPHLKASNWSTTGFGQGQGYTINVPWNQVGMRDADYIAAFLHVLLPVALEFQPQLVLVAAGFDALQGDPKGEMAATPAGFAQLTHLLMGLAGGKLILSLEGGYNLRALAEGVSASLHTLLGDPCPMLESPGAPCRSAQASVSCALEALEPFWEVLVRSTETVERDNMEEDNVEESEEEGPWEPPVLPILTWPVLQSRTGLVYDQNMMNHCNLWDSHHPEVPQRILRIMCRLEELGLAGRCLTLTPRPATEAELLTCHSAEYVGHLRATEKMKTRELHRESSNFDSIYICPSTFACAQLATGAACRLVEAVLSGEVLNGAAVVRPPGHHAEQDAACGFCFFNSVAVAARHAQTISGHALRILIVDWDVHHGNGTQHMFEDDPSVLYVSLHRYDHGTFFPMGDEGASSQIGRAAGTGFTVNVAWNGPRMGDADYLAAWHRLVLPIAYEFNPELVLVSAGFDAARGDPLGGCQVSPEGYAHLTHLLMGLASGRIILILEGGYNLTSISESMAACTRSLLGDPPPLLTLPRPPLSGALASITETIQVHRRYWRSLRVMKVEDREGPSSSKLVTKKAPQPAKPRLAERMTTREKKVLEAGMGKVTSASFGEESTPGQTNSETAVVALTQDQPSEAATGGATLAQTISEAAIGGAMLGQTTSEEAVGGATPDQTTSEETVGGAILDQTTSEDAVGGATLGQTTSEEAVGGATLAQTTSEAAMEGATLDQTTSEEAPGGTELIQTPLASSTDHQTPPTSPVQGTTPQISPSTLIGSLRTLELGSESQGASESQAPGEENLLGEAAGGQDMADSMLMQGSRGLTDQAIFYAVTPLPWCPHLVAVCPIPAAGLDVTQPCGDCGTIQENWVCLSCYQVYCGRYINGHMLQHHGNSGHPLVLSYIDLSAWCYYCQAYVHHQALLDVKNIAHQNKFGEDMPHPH", "assay": "Inhibition of HDAC6 in human MDA-MB-231 cells assessed as accumulation of acetylated tubulin at 5 to 20 uM by Western blot analysis", "assay_type": "cell-based", "conditions": "dose 5-20 µM"}, "Histone deacetylase 3": {"molecular_target": "Histone deacetylase 3 (Homo sapiens, UniProt O15379)", "sequence (O15379 whole entry)": "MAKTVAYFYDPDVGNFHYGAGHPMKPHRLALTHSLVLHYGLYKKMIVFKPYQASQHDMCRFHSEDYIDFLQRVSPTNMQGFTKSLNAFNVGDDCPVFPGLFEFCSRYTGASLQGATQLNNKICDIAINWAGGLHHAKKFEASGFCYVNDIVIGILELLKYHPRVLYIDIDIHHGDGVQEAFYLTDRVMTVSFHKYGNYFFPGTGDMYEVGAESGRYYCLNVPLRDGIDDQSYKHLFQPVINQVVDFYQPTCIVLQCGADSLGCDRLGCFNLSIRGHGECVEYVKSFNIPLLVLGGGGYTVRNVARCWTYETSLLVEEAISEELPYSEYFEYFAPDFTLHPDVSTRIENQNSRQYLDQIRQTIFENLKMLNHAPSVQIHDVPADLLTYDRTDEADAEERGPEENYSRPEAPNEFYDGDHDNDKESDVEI", "assay": "Inhibition of HDAC3 (unknown origin)"}, "MDA-MB-231 [10]": {"system": "MDA-MB-231", "assay": "Induction of autophagy in human MDA-MB-231 cells transfected with GFP-LC3 assessed as increase in LC3II level at 5 to 20 uM after 48 hrs by Western blot analysis", "assay_type": "functional, cell-based", "conditions": "dose 5-20 µM"}, "[11]": {"molecular_target": "T2, Protein deacetylase HDAC6 (Homo sapiens)", "assay": "Binding affinity to HDAC6 in human MDA-MB-231 cells assessed as increase in thermal stability at 10 uM measured at 6 hrs by CETSA", "assay_type": "cell-based"}, "MDA-MB-468": {"system": "MDA-MB-468", "assay": "Antiproliferative activity against human MDA-MB-468 cells measured after 48 hrs", "assay_type": "functional, cell-based", "conditions": "MDA-MB-468, 48 h"}, "MCF-10A": {"system": "MCF-10A", "assay": "Cytotoxicity against human MCF-10A cells assessed as increase in cell viability", "assay_type": "cell-based"}, "[12]": {"molecular_target": "T2, Protein deacetylase HDAC6 (Homo sapiens)", "assay": "Inhibition of HDAC6 in human MDA-MB-231 cells assessed as increase in acetylated lysine at 5 to 20 uM by Western blot analysis", "assay_type": "cell-based", "conditions": "dose 5-20 µM"}, "MDA-MB-231 [13]": {"system": "MDA-MB-231", "assay": "Induction of apoptosis in human MDA-MB-231 cells assessed as early apoptotic cells at 10 uM by annexin V/propidium iodide staining-based flow cytometry analysis (reference value: 0.69 %)", "assay_type": "functional"}, "[14]": {"molecular_target": "Serine/threonine-protein kinase mTOR (Homo sapiens, UniProt P42345)", "assay": "Inhibition of mTOR in human MDA-MB-231 cells assessed as decrease in p70s6k phosphorylation at […] residue at 5 to 20 uM by Western blot analysis", "assay_type": "cell-based", "conditions": "dose 5-20 µM"}, "[15]": {"assay": "Solubility of the compound", "assay_type": "physicochemical"}, "MDA-MB-231 [16]": {"system": "MDA-MB-231", "assay": "Induction of autophagy in human MDA-MB-231 cells transfected with GFP-LC3 assessed as decrease in SQSTM1/p62 expression at 5 to 20 uM after 48 hrs by Western blot analysis", "assay_type": "functional, cell-based", "conditions": "dose 5-20 µM"}, "Histone deacetylase 2 [17]": {"molecular_target": "T1, Histone deacetylase 2", "assay": "Inhibition of HDAC2 (unknown origin)"}, "Histone deacetylase 1 [18]": {"molecular_target": "T3, Histone deacetylase 1 (Homo sapiens, UniProt Q13547)", "T3 sequence (Q13547 whole entry)": "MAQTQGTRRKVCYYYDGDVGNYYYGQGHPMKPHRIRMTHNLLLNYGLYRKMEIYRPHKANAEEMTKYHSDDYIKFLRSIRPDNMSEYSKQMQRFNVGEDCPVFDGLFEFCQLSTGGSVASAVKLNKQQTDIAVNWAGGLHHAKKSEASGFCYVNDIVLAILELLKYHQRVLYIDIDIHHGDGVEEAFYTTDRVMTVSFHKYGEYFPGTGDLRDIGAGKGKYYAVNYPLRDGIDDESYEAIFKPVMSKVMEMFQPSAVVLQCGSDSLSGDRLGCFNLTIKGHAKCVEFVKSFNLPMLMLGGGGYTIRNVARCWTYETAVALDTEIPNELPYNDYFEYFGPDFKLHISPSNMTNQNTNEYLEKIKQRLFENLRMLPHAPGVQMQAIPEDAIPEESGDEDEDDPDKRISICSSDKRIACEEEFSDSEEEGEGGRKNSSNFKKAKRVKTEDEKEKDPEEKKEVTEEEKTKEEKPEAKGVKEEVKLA", "assay": "Binding affinity to HDAC1 in human MDA-MB-231 cells assessed as increase in thermal stability at 10 uM measured at 6 hrs by CETSA", "assay_type": "cell-based"}, "MDA-MB-231 [19]": {"system": "MDA-MB-231", "assay": "Induction of autophagy in human MDA-MB-231 cells transfected with GFP-LC3 assessed as increase in Beclin 1 level at 5 to 20 uM after 48 hrs by Western blot analysis", "assay_type": "functional, cell-based", "conditions": "dose 5-20 µM"}, "MDA-MB-231 [20]": {"system": "MDA-MB-231", "assay": "Induction of apoptosis in human MDA-MB-231 cells assessed as increase in caspase 8 cleavage at 5 to 20 uM by Western blot analysis", "assay_type": "functional, cell-based", "conditions": "dose 5-20 µM"}, "Histone deacetylase 1 [21]": {"molecular_target": "T3, Histone deacetylase 1", "assay": "Inhibition of HDAC1 (unknown origin)"}, "MDA-MB-231 [22]": {"system": "MDA-MB-231", "assay": "Induction of apoptosis in human MDA-MB-231 cells assessed as downregulation of Bcl-2 at 5 to 20 uM by Western blot analysis", "assay_type": "functional, cell-based", "conditions": "dose 5-20 µM"}}, "note": "Active and inactive are the calls of the source. The calls are words filed in the database; no cut-off is given here."}
{"smiles": "CN1CCN(c2nc(-c3ccc(C(=O)NO)cc3)nc3cc(Cl)ccc23)CC1", "values": [{"measurement": "inhibition", "setting": "MDA-MB-231 [1]", "value": "Active"}, {"measurement": "Activity", "setting": "MDA-MB-231 [2]", "value": 0.64, "unit": "%"}, {"measurement": "Activity", "setting": "MDA-MB-231 [3]", "value": "Active"}, {"measurement": "IC50", "setting": "MDA-MB-231 [4]", "value": 8400, "unit": "nM"}, {"measurement": "Activity", "setting": "MDA-MB-231 [5]", "value": 22.4, "unit": "%"}, {"measurement": "inhibition", "setting": "MDA-MB-231 [6]", "value": "Active"}, {"measurement": "Activity", "setting": "MDA-MB-231 [7]", "value": "Active"}, {"measurement": "Activity", "setting": "Histone deacetylase 2 [8]", "value": "inactive"}, {"measurement": "inhibition", "setting": "[9]", "value": "Active"}, {"measurement": "IC50", "setting": "Histone deacetylase 3", "value": 414, "unit": "nM"}, {"measurement": "Activity", "setting": "MDA-MB-231 [10]", "value": "Active"}, {"measurement": "Activity", "setting": "[11]", "value": "Active"}, {"measurement": "IC50", "setting": "MDA-MB-468", "value": 14300, "unit": "nM"}, {"measurement": "Activity", "setting": "MCF-10A", "value": "Non-Toxic"}, {"measurement": "inhibition", "setting": "[12]", "value": "Active"}, {"measurement": "Activity", "setting": "MDA-MB-231 [13]", "value": 7.95, "unit": "%"}, {"measurement": "inhibition", "setting": "[14]", "value": "Active"}, {"measurement": "solubility", "setting": "[15]", "value": "Insoluble"}, {"measurement": "Activity", "setting": "MDA-MB-231 [16]", "value": "Active"}, {"measurement": "IC50", "setting": "Histone deacetylase 2 [17]", "value": 374, "unit": "nM"}, {"measurement": "Activity", "setting": "Histone deacetylase 1 [18]", "value": "inactive"}, {"measurement": "Activity", "setting": "MDA-MB-231 [19]", "value": "Active"}, {"measurement": "Activity", "setting": "MDA-MB-231 [20]", "value": "Active"}, {"measurement": "IC50", "setting": "Histone deacetylase 1 [21]", "value": 359, "unit": "nM"}, {"measurement": "Activity", "setting": "MDA-MB-231 [22]", "value": "Active"}]}
